In one experiment the test system is AMPK T172. Description: Detection of AMPK phosphorylation by ELISA assay in PLC5 cells. The experiment is classed as cell-based. To be noted: PLC5 cultured with 10 μM compound for 24 hours, compared to control group. The protocol:
In this analysis, the commercial kit AMPK […] Phospho-ELISA Kit (KHO0651) produced by ThermoFisher Science is utilized. The hepatoma cell PLC5 is cultured with 10 μM of the compound for 24 hours, and the analysis is performed according to the manual, and the absorbance was detected at a wavelength of 450 nm.

The test system of another experiment is PLC/PRF/5 (PLC5) cells. Description: Cell viability of liver cancer cells (Prestoblue), PLC5. It counts as cell-based. To be noted: PLC5 cells, 48 hr. On the procedure: Hepatoma cell Huh-7 was obtained from Health Science Research Resources Bank (HSRRB, Osaka. Japan; JCRB0403); Hepatoma cell PLC/PRF/5 (PLC5), Sk-Hep-1 and HCC1806 were obtained from the American Type Culture Collection (ATCC, Manassas, Va.). All cell lines are cultured immediately and frozen, so the frozen cells can be thawed every 3 months to allow experiments are conducted with the same batch of cells.
Analysis is performed using a commercial kit Prestoblue assay produced by Thermo Fisher Scientific. Three liver cancer cell lines PLC/PRF/5, SK-hep1, and Huh-7 are cultured with compound SCT-1015 for 48 hours and 72 hours, respectively. […] The results support that the compound of the present invention can activate AMPK to inhibit the proliferation of liver cancer cells.

The nature of experiment [1]: Treatment of diet-induced obesity (DIO) mice, body weight. The experiment is classed as in vivo. To be noted: compared to the control group of mice (FIG. 6). An excerpt:
The male mice C57BL/6 were purchased from the National Laboratory Animal Center (NLAC, Taipei, Taiwan) and fed high-fat-die for 4 weeks to establish the diet-induced obesity (DIO) mouse model for subsequent experiments

For `O=C(Nc1cccc(Nc2nccc(-c3cccs3)n2)c1)Nc1ccc(Cl)c(C(F)(F)F)c1` [SCT-1017, 1-(4-chloro-3-(trifluoromethyl)phenyl)-3-(3-((4-(thiophen-2-yl)pyrimidin-2-yl)amino)phenyl)urea], the “AMPK T172 activity” value in the experiment on AMPK T172 was 1.1 fold. This compound had an IC50 in the experiment on PLC/PRF/5 (PLC5) cells of more than 20 µM.

On to `O=C(Nc1cccc(Nc2nccc(-c3ccc[nH]3)n2)c1)Nc1cccc(C(=O)O)c1` [SCT-1038, 3-(3-(3-((4-(1H-pyrrol-2-yl)pyrimidin-2-yl)amino)phenyl)ureido)benzoic acid], for which the concentration for half-maximal inhibition (IC50) in the experiment with PLC/PRF/5 (PLC5) cells was more than 20 µM. With `Cc1cc(-c2ccnc(Nc3cccc(NC(=O)Nc4ccc(Cl)c(C(F)(F)F)c4)c3)n2)ccc1F` [SCT-1019, 1-(4-chloro-3-(trifluoromethyl)phenyl)-3-(3-((4-(4-fluoro-3-methylphenyl)pyrimidin-2-yl)amino)phenyl)urea], in the experiment with AMPK T172, the “AMPK T172 activity” value was determined as 1.0 fold. Besides, the half-maximal inhibitory concentration (IC50) in the experiment on PLC/PRF/5 (PLC5) cells is more than 20 µM. Consider `Cc1ccc(F)c(NC(=O)Nc2cccc(Nc3nccc(-c4ccc[nH]4)n3)c2)c1` [SCT-1034], for which, in the experiment with PLC/PRF/5 (PLC5) cells, the IC50 is more than 20 µM. With `Cc1ccc(C(=O)Nc2ccc(Cl)c(C(F)(F)F)c2)cc1Nc1nccc(-c2ccc(C(F)(F)F)cc2)n1` [SCT-1011, N-(4-chloro-3-(trifluoromethyl)phenyl)-4-methyl-3-((4-(4-(trifluoromethyl)phenyl)pyrimidin-2-yl)amino)benzamide], the “AMPK T172 activity” value with AMPK T172 is recorded as 1.1 fold. For the same compound, the IC50 in the experiment with PLC/PRF/5 (PLC5) cells is more than 20 µM.

In the case of `O=C(Nc1cccc(Nc2nccc(-c3ccccc3)n2)c1)Nc1ccc(Cl)c(C(F)(F)F)c1` [SCT-1016, 1-(4-chloro-3-(trifluoromethyl)phenyl)-(3-((4-phenylpyrimidin-2-yl)amino)phenyl)urea], in the experiment with AMPK T172, the “AMPK T172 activity” value worked out at 1.0 fold. In the experiment with PLC/PRF/5 (PLC5) cells, this compound displayed a half-inhibitory concentration (IC50) of more than 20 µM. Taken in the same sequence, the figures for `Cc1cc(-c2ccnc(Nc3cc(C(=O)Nc4ccc(Cl)c(C(F)(F)F)c4)ccc3C)n2)ccc1F` [SCT-1009, N-(4-chloro-3-(trifluoromethyl)phenyl)-3-((4-(4-fluoro-3-methylphenyl)pyrimidin-2-yl)amino)-4-methylbenzamide] were 1.1 fold and more than 20 µM.

Turning to `O=C(Nc1cccc(Nc2cc(-c3ccccc3)ncn2)c1)Nc1ccc(Cl)c(C(F)(F)F)c1` [SCT-1022], in the experiment with AMPK T172, the “AMPK T172 activity” value was 1.4 fold. For the same compound, the half-inhibitory concentration (IC50) with PLC/PRF/5 (PLC5) cells was more than 20 µM.

With `COc1ccc2ccccc2c1-c1ccnc(Nc2cc(C(=O)Nc3ccc(Cl)c(C(F)(F)F)c3)ccc2C)n1` [SCT-1005, N-(4-chloro-3-(trifluoromethyl)phenyl)-3-((4-(2-methoxynaphthalen-1-yl)pyrimidin-2-yl)amino)-4-methylbenzamide], the “AMPK T172 activity” value with AMPK T172 worked out at 1.0 fold. In the experiment with PLC/PRF/5 (PLC5) cells, this compound came in with an IC50 of more than 20 µM.

For `CCc1cccc(NC(=O)Nc2cccc(Nc3nccc(-c4ccc[nH]4)n3)c2)c1` [SCT-1033], in the experiment on PLC/PRF/5 (PLC5) cells, the concentration for half-maximal inhibition (IC50) is more than 20 µM. In the case of `Cc1ccc(C(=O)Nc2ccc(Cl)c(C(F)(F)F)c2)cc1Nc1nccc(-c2cccs2)n1` [SCT-1007, N-(4-chloro-3-(trifluoromethyl)phenyl)-4-methyl-3-((4-(thiophen-2-yl)pyrimidin-2-yl)amino)benzamide], the “AMPK T172 activity” value in the experiment on AMPK T172 stood at 1.1 fold. Besides, in the experiment on PLC/PRF/5 (PLC5) cells, the IC50 is more than 20 µM. Compound `COC(=O)c1cc(NC(=O)Nc2cccc(Nc3nccc(-c4ccc[nH]4)n3)c2)ccc1Cl` [SCT-1041, Methyl 5-(3-(3-((4-(1H-pyrrol-2-yl)pyrimidin-2-yl)amino)phenyl)ureido)-2-chlorobenzoate] showed a 50% inhibitory concentration (IC50) in the experiment with PLC/PRF/5 (PLC5) cells of more than 20 µM. Consider `Cc1ccc(C(=O)Nc2ccc(Cl)c(C(F)(F)F)c2)cc1Nc1nccc(-c2ccc(OC(F)(F)F)cc2)n1` [SCT-1010, N-(4-chloro-3-(trifluoromethyl)phenyl)-4-methyl-3-((4-(4-(trifluoromethoxy)phenyl)pyrimidin-2-yl)amino)benzamide], for which, in the experiment with AMPK T172, the “AMPK T172 activity” value is 1.0 fold. In the experiment on PLC/PRF/5 (PLC5) cells, this compound gave an IC50 of more than 20 µM.

`N#Cc1ccc(-c2ccnc(Nc3cccc(NC(=O)Nc4ccc(Cl)c(C(F)(F)F)c4)c3)n2)cc1` [SCT-1013, 1-(4-chloro-3-(trifluoromethyl)phenyl)-3-(3-((4-(4-cyanophenyl)pyrimidin-2-yl)amino)phenyl)urea]: in the experiment on AMPK T172, the “AMPK T172 activity” value amounted to 1.0 fold. This compound showed a concentration for half-maximal inhibition (IC50) with PLC/PRF/5 (PLC5) cells of more than 20 µM. With `CSc1cccc(-c2ccnc(Nc3cc(C(=O)Nc4ccc(Cl)c(C(F)(F)F)c4)ccc3C)n2)c1` [SCT-1008, N-(4-chloro-3-(trifluoromethyl)phenyl)-4-methyl-3-((4-(3-(methylthio)phenyl)pyrimidin-2-yl)amino)benzamide], the “AMPK T172 activity” value with AMPK T172 turned out to be 1.0 fold. This compound also had an IC50 with PLC/PRF/5 (PLC5) cells of more than 20 µM.

In the case of `Cc1ccc(C(=O)Nc2ccc(Cl)c(C(F)(F)F)c2)cc1Nc1nccc(-c2cccc(C#N)c2)n1` [SCT-1002, N-(4-chloro-3-(trifluoromethyl)phenyl)-3-((4-(3-cyanophenyl)pyrimidin-2-yl)amino)-4-methylbenzamide], the “AMPK T172 activity” value in the experiment on AMPK T172 was found to be 1.2 fold. The IC50 in the experiment with PLC/PRF/5 (PLC5) cells is more than 20 µM. With `O=C(Nc1cccc(Nc2nccc(-c3ccc(OC(F)(F)F)cc3)n2)c1)Nc1ccc(Cl)c(C(F)(F)F)c1` [SCT-1020, 1-(4-chloro-3-(trifluoromethyl)phenyl)-3-(3-((4-(4-(trifluoromethoxy)phenyl)pyrimidin-2-yl)amino)phenyl)urea], the “AMPK T172 activity” value with AMPK T172 was found to be 1.3 fold. Further, the IC50 in the experiment with PLC/PRF/5 (PLC5) cells was more than 20 µM.

Take `Cc1ccc(C(=O)Nc2ccc(Cl)c(C(F)(F)F)c2)cc1Nc1nccc(-c2ccccc2)n1` [SCT-1004, N-(4-chloro-3-(trifluoromethyl)phenyl)-4-methyl-3-((4-phenylpyrimidin-2-yl)amino)benzamide]: the “AMPK T172 activity” value with AMPK T172 came to 1.1 fold. In addition, the concentration for half-maximal inhibition (IC50) in the experiment with PLC/PRF/5 (PLC5) cells is more than 20 µM. Taken in the same sequence, the figures for `Cc1ccc(C(=O)Nc2ccc(Cl)c(C(F)(F)F)c2)cc1Nc1nccc(-c2cc(Cl)cc(Cl)c2)n1` [SCT-1012, N-(4-chloro-3-(trifluoromethyl)phenyl)-3-((4-(3,5-dichlorophenyl)pyrimidin-2-yl)amino)-4-methylbenzamide] were 1.0 fold and more than 20 µM. Taken in the same sequence, the figures for `Cc1ccc(C(=O)Nc2ccc(Cl)c(C(F)(F)F)c2)cc1Nc1cc(-c2ccccc2)ncn1` [SCT-1006, N-(4-chloro-3-(trifluoromethyl)phenyl)-4-methyl-3-((6-phenylpyrimidin-4-yl)amino)benzamide] were 1.3 fold and more than 20 µM. On to `O=C(Nc1cccc(Nc2nccc(-c3ccc(C(F)(F)F)cc3)n2)c1)Nc1ccc(Cl)c(C(F)(F)F)c1` [SCT-1021, 1-(4-chloro-3-(trifluoromethyl)phenyl)-3-(3-((4-(4-(trifluoromethyl)phenyl)pyrimidin-2-yl)amino)phenyl)urea], for which the “AMPK T172 activity” value in the experiment with AMPK T172 was determined as 1.2 fold. In addition, in the experiment on PLC/PRF/5 (PLC5) cells, the IC50 was more than 20 µM. As for `COC(=O)c1cc(NC(=O)Nc2cccc(Nc3nccc(-c4ccc[nH]4)n3)c2)ccc1C` [SCT-1039, Methyl 5-(3-(3-((4-(1H-pyrrol-2-yl)pyrimidin-2-yl)amino)phenyl)ureido)-2-methylbenzoate], the IC50 with PLC/PRF/5 (PLC5) cells was more than 20 µM. On the same count and under the same terms, with `Cc1ccc(C(=O)Nc2ccc(Cl)c(C(F)(F)F)c2)cc1Nc1nccc(-c2ccc(C#N)cc2)n1` [SCT-1001, N-(4-chloro-3-(trifluoromethyl)phenyl)-(3)-((4-(4-cyanophenyl)pyrimidin-2-yl)amino)-4-methylbenzamide] the figure was more than 20 µM. `CSc1cccc(-c2ccnc(Nc3cccc(NC(=O)Nc4ccc(Cl)c(C(F)(F)F)c4)c3)n2)c1` [SCT-1018, 1-(4-chloro-3-(trifluoromethyl)phenyl)-3-(3-((4-(3-(methylthio)phenyl)pyrimidin-2-yl)amino)phenyl)urea]: the “AMPK T172 activity” value with AMPK T172 stood at 1.1 fold. In the experiment on PLC/PRF/5 (PLC5) cells, this compound returned an IC50 of more than 20 µM. In the case of `CCCCCCCCCCC[C@@H](C[C@@H]1OC(=O)[C@H]1CCCCCC)OC(=O)[C@H](CC(C)C)NC=O` [orlistat, reference compound], in experiment [1], the body weight lost result is “similar”. In the experiment with PLC/PRF/5 (PLC5) cells, `COC(=O)c1cccc(NC(=O)Nc2cccc(Nc3nccc(-c4ccc[nH]4)n3)c2)c1` [SCT-1037] displayed a concentration for half-maximal inhibition (IC50) of more than 20 µM. Same read-out and setting: with `O=C(Nc1cccc(Nc2nccc(-c3cc(Cl)cc(Cl)c3)n2)c1)Nc1ccc(Cl)c(C(F)(F)F)c1` [SCT-1023, 1-(4-chloro-3-(trifluoromethyl)phenyl)-3-(3-((4-(3,5-dichlorophenyl)pyrimidin-2-yl)amino)phenyl)urea] the figure was more than 20 µM. With `Cc1ccc(C(=O)Nc2ccc(Cl)c(C(F)(F)F)c2)cc1Nc1nccc(-c2ccc[nH]2)n1` [SCT-1003, 3-((4-(1H-pyrrol-2-yl)pyrimidin-2-yl)amino)-N-(4-chloro-3-(trifluoromethyl)phenyl)-4-methylbenzamide], the “AMPK T172 activity” value with AMPK T172 was 1.1 fold. The same compound registered an IC50 in the experiment on PLC/PRF/5 (PLC5) cells of more than 20 µM. Consider `N#Cc1cccc(-c2ccnc(Nc3cccc(NC(=O)Nc4ccc(Cl)c(C(F)(F)F)c4)c3)n2)c1` [SCT-1014], for which the “AMPK T172 activity” value in the experiment on AMPK T172 was 1.0 fold. The IC50 in the experiment on PLC/PRF/5 (PLC5) cells is more than 20 µM.

These data come from patent US10793527B2, “Adenosine monophosphate-activated protein kinase agonist” (NATIONAL YANG-MING UNIVERSITY, priority 2016, dated 2020).
